Read-outs that look alike come from different tables or passages of the source.
Key:
[1] = target: T1, SXR (Homo sapiens, UniProt O75469); assay: Transient transfection luciferase assay, full-length SXR with CYP3A4-luc reporter in HepG2 cells; details: for inhibitory activity toward SXR function (SFN analogs): 24 hrs
T1 sequence (O75469 1-434): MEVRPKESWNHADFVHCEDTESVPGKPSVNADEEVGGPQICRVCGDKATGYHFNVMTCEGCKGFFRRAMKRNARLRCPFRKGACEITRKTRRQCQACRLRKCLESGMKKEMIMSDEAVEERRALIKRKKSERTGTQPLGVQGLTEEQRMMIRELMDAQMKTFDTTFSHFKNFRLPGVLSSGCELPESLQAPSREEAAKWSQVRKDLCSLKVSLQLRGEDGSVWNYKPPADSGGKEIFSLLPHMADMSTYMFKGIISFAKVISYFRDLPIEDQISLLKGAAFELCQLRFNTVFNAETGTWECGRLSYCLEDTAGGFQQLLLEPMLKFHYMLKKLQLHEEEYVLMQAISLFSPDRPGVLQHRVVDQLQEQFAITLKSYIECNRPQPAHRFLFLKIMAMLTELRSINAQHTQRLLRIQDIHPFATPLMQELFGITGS

[2] = tested on: UGT1A1; assay: UGT1A1 gene expression by QRT-PCR; type: cell-based, human
[3] = target: PPARα (Homo sapiens, UniProt Q07869); details: 10 μM SFN
[4] = target: rat PXR (Rattus norvegicus, UniProt Q9R1A7); details: 10 μM SFN
[5] = target: CAR (Homo sapiens, UniProt Q14994); details: 10 μM SFN
[6] = target: CYP3A4 (Homo sapiens, UniProt P08684); details: concentrations as high as 50 μM; cited from earlier work
[7] = target: mouse PXR (Mus musculus, UniProt O54915); details: 10 μM SFN
[8] = target: GAL4-SXR (Homo sapiens, UniProt O75469); assay: cell-based
[9] = tested on: CYP3A4; details: for average CYP3A4 mRNA levels relative to the solvent control: 48 hrs
[10] = tested on: NQO1; details: human primary hepatocytes, 10 or 25 μM SFN, 48 h
[11] = tested on: NQO1 and Glutamate Cysteine Ligase (both GCLM and GCLC); details: 10 or 50 μM SFN, 48 hrs
[12] = tested on: MDR1 (ABCB1); details: LS180 cells
[13] = tested on: human hepatocytes; details: pretreatment with 50 μM SFN; cited from earlier work
[14] = target: SXR / SRC-1 interaction (Homo sapiens, UniProt O75469); details: 10 μM RIF
[15] = tested on: CYP3A4; details: LS180 cells, SFN 24 hrs pre-treatment
[16] = tested on: NQO1; details: LS180 cells, 10 or 25 μM SFN, 48 h
[17] = human subjects who ingest SFN in a broccoli soup; cited from earlier work
[18] = target: VDR (Homo sapiens, UniProt P11473); details: 10 μM SFN
[19] = target: human SXR ligand binding domain (Homo sapiens, UniProt O75469); assay: biochemical
[20] = tested on: rat CYP3A; details: in vivo; cited from earlier work
[21] = target: PPARγ (Homo sapiens, UniProt P37231); details: 10 μM SFN
[22] = target: SXR / PBP interaction (Homo sapiens, UniProt O75469); details: 10 μM RIF
[23] = tested on: CYP3A4; details: hepatocytes
[24] = target: T2, VP16-SXR (human, UniProt O75469 1-434); assay: mammalian two-hybrid in HepG2 cells (GAL4 reporter, VP16-SXR, GAL-TIF2), with rifampicin
T2 construct: also called steroid and xenobiotic receptor; pregnane X receptor
T2 sequence: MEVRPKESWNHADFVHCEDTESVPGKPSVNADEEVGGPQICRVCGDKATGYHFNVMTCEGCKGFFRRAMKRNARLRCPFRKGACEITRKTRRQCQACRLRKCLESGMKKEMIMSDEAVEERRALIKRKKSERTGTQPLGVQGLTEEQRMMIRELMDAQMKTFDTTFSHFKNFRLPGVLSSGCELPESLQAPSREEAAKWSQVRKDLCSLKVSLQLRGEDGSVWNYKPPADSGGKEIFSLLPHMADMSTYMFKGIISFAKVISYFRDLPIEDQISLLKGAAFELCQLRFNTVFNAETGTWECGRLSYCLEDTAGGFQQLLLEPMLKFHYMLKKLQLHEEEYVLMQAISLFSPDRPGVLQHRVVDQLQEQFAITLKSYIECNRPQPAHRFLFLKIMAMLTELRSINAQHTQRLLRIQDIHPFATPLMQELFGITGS

[25] = target: T2, VP16-SXR; assay: mammalian two-hybrid in HepG2 cells (GAL4 reporter, VP16-SXR, GAL-ACTR), with rifampicin

Sequence of rat PXR (Q9R1A7 143-430 limits assumed): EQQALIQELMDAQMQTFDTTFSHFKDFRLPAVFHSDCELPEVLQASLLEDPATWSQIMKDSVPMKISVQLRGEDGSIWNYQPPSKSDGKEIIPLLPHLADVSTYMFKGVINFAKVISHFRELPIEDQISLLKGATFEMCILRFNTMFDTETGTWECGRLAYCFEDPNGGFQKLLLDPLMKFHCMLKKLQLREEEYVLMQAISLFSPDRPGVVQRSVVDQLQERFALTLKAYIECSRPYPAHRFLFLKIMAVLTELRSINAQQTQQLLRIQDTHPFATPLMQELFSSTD
Sequence of mouse PXR (O54915 143-430 limits assumed): as the sequence (Q9R1A7 143-430 limits assumed) above, with D36G, V42F, S61R, V68L, H118Y, E121D, R191H, E192K, T272S counted along it
Sequence of CAR (Q14994 109-352 limits assumed): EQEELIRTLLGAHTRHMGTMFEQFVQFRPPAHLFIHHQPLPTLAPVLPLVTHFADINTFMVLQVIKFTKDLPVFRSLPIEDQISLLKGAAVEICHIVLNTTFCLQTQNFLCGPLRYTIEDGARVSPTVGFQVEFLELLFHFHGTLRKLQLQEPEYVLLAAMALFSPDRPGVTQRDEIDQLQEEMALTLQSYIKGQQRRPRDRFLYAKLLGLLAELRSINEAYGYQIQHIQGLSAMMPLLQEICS
Sequence of VDR (P11473 127-423 limits assumed, species assumed): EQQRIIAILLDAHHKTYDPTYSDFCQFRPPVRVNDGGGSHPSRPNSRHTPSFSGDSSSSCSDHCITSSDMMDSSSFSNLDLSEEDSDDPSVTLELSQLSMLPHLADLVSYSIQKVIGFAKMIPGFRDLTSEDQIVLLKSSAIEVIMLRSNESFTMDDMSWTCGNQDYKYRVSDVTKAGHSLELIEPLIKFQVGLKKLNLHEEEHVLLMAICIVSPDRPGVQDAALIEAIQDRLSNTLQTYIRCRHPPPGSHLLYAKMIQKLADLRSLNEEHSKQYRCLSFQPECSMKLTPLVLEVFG
Sequence of PPARγ (P37231 238-503 limits assumed, species assumed): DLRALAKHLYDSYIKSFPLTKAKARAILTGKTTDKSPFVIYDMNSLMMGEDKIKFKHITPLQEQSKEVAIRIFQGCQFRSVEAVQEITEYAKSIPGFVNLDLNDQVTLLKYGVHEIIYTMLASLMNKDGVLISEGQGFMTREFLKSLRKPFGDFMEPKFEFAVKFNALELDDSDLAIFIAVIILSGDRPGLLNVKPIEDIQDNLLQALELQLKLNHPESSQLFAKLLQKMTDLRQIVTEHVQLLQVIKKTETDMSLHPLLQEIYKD
Sequence of PPARα (Q07869 239-466 limits assumed, species assumed): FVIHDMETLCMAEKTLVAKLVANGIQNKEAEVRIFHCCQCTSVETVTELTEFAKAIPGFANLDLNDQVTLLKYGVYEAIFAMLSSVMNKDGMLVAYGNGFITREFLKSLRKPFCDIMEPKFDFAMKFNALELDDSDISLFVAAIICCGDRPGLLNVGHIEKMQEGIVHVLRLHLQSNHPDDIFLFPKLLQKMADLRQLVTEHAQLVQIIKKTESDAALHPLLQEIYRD
Sequence of CYP3A4 (Homo sapiens, UniProt P08684) (P08684 whole entry): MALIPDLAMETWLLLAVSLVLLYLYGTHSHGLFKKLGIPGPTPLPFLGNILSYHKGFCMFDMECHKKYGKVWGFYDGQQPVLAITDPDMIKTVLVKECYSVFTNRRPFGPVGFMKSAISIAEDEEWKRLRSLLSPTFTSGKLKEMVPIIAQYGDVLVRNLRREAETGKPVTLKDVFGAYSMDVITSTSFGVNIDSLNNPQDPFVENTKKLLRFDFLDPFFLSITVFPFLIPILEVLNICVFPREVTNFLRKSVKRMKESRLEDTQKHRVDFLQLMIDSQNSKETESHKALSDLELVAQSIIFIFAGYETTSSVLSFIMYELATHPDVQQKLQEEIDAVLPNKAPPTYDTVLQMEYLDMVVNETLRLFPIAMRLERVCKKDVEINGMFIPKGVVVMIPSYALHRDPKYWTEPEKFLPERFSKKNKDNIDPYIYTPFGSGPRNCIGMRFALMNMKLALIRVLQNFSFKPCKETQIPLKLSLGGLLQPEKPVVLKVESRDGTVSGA

CS(=O)(=O)CCCN=C=S [Cheirolin]
inhibitory effect toward SXR function at low concentration ([1]; 10 μM RIF, low concentration, compared with SFN): less potent at low concentration

C[S+]([O-])CCCN=C=S (stereo not drawn) [Iberin]
inhibitory activity toward SXR function (SFN analogs) ([1]; 10 μM RIF, compared with SFN): little effect on inhibitory potency

S=C=NCCc1ccccc1 [PEITC, reference compound]
inhibitory activity toward SXR function (SFN analogs) ([1]; 10 μM RIF, compared with SFN): substantial loss of the inhibitory effect

CC#C[C@]1(O)CC[C@H]2[C@@H]3CCC4=CC(=O)CCC4=C3[C@@H](c3ccc(N(C)C)cc3)C[C@@]21C [RU486, mifepristone, reference compound]
effect on UGT1A1 gene expression [2]: slightly induced

C[S+]([O-])CCCCN=C=S (stereo not drawn) [SFN, 4-methylsulfinylbutyl isothiocyanate]
activity as activating ligand of PPARα [3]: nor did it serve as an activating ligand
inhibition of ligand activation of PPARα [3]: did not inhibit ligand activation
activity as activating ligand of rPXR [4]: nor did it serve as an activating ligand
inhibition of ligand activation of rPXR [4]: did not inhibit ligand activation
activity as activating ligand of CAR [5]: nor did it serve as an activating ligand
inhibition of ligand activation of CAR [5]: did not inhibit ligand activation
direct inhibition of CYP3A4 catalytic activity [6]: not a direct inhibitor
activity as activating ligand of mPXR [7]: nor did it serve as an activating ligand
inhibition of ligand activation of mPXR [7]: did not inhibit ligand activation
IC50 [8]: 14 µM
average CYP3A4 mRNA levels relative to the solvent control ([9]; 10 μM SFN): 69%
average CYP3A4 mRNA levels relative to the solvent control ([9]; 25 μM SFN): 20%
average CYP3A4 mRNA levels relative to the solvent control ([9]; 50 μM SFN): 13%
CYP3A4 responses in single individuals, lowest, of the solvent control ([9]; single individuals): 2%
induction of NQO1 [10]: significantly induced
mRNA levels of detoxification enzymes including NQO1, GCLM and GCLC [11]: increased mRNA levels
inhibition of RIF or RU486 induced expression of MDR1 (ABCB1) [12]: inhibited RIF or RU486 induced expression of MDR1
decrease in DNA adduction of aflatoxin B1 [13]: > 90%
inhibition of RIF induced SRC-1 recruitment to SXR [14]: inhibited RIF induced SRC-1 and PBP recruitment to SXR in a dose dependent manner
IC50 [1]: ~12 µM
inhibition of RIF and RU486 induced reporter activities ([1]; 10 μM RIF or RU486, dose-dependent): significantly inhibited
inhibition of RIF induced SXR reporter activity ([1]; 25 μM SFN, 10 μM RIF): blocked most of the RIF induced SXR reporter activity
concentration as low as which SXR reporter activity was inhibited ([1]; HepG2, RIF or RU486 induced): 1000 nM
reduction in RIF- and RU486-mediated induction of CYP3A4 [15]: dose-related reduction
induction of NQO1 [16]: significantly induced
peak plasma concentration of unconjugated SFN [17]: 4 to 5 µM
effect on UGT1A1 gene expression [2]: induced UGT1A1 gene expression
activity as activating ligand of VDR [18]: nor did it serve as an activating ligand
inhibition of ligand activation of VDR [18]: did not inhibit ligand activation
Ki [19]: 16 µM
inhibition of rat CYP3A gene expression [20]: did not inhibit rat CYP3A gene expression
activity as activating ligand of PPARγ [21]: nor did it serve as an activating ligand
inhibition of ligand activation of PPARγ [21]: did not inhibit ligand activation
inhibition of RIF induced PBP recruitment to SXR [22]: inhibited RIF induced SRC-1 and PBP recruitment to SXR in a dose dependent manner
effect on basal level of CYP3A4 expression [23]: significantly reduced the basal level

C[S+]([O-])CCCCC#N (stereo not drawn) [SFN-nitrile, reference compound]
inhibitory activity toward SXR function (SFN analogs) ([1]; 10 μM RIF, compared with SFN): no inhibitory activity

B1: GAL4 DNA-binding domain linked to the receptor interaction domains of transcriptional intermediary factor (GAL-TIF2) (other)
chain: MKLLSSIEQACDICRLKKLKCSKEKPKCAKCLKNNWECRYSPKTKRSPLTRAHLTEVESRLERLEQLFLLIFPREDLDMILKMDSLQDIKALLTGLFVQDNVNKDAVTDRLASVETDMPLTLRQHRISATSSSEESSNKGQRQLTVSQNSPVNMNPPPLSKMGSLDSKDCFGLYGEPSEGTTGQAESSCHPGEQKETNDPNLPPAVSSERADGQSRLHDSKGQTKLLQLLTTKSDQMEPSPLASSLSDTNKDSTGSLPGSGSTHGTSLKEKHKILHRLLQDSSSPVDLAKLTAEATGKDLSQESSSTAPGSEVTIKQEPVSPKKKENALLRYLLDKDDTKDIGLPEITPKLERLDSKTDPASNTKLIAMKTEKEE
binding result [24]: no binding (tested: 10 µM RIF)

B2: GAL4 DNA-binding domain linked to the receptor interaction domains of activator of thyroid and retinoic acid receptor (GAL-ACTR) (other)
chain: MKLLSSIEQACDICRLKKLKCSKEKPKCAKCLKNNWECRYSPKTKRSPLTRAHLTEVESRLERLEQLFLLIFPREDLDMILKMDSLQDIKALLTGLFVQDNVNKDAVTDRLASVETDMPLTLRQHRISATSSSEESSNKGQRQLTVSESSVEGAENQRGPLESKGHKKLLQLLTCSSDDRGHSSLTNSPLDSSCKESSVSVTSPSGVSSSTSGGVSSTSNMHGSLLQEKHRILHKLLQNGNSPAEVAKITAEATGKDTSSITSCGDGNVVKQEQLSPKKKENNALLRYLLDRDDPSDALSKELQPQVEGVDNKMSQCTSSTIPSSSQEKDPKIKTE
binding result [25]: no binding (tested: 10 µM RIF)

Reference: patent US20080124407A1, “INHIBITING CYP3A4 INDUCTION” (UNIVERSITY OF WASHINGTON, priority 2006, published 2008)
